Columns and labels:
SGK3 = biological target: T1, SGK3 (Homo sapiens, UniProt Q96BR1); assay: IC50 on recombinant SGK3; assay type: biochemical; conditions: recombinant kinase
T1 sequence (Q96BR1 1-496): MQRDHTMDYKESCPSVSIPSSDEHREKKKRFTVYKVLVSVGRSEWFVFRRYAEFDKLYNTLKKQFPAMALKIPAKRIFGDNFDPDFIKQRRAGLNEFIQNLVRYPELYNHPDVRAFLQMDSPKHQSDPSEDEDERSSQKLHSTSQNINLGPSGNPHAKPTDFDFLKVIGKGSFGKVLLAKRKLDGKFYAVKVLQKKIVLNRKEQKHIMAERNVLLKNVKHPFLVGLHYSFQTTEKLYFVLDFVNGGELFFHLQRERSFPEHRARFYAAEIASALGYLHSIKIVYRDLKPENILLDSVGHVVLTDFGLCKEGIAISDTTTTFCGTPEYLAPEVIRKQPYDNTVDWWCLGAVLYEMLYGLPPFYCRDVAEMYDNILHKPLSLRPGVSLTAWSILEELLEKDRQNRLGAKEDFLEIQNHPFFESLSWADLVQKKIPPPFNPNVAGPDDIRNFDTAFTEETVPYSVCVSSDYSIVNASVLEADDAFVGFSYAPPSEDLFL
Method: (§1) The result for each kinase is presented as a mean kinase activity of the reaction taken in triplicate relative to a control reaction where the inhibitors were omitted. […] SGK3 was immunoprecipitated from cell lysates and subjected to in vitro kinase assay by measuring phosphorylation of the Crosstide substrate peptide in the presence of 0.1 mM [γ‐^32P]ATP in a 30 min 30°C reaction (upper panel). Kinase reactions are presented as means ± SD for triplicate reaction.
Appendix Figure S1. […] (A) Chemical struc tures of
Sano/f_i-14g, -14i and -14n compounds. (B) IC50 values of inhibitors on indicated recombinant k inases. […]

BT-474c cells = assay: Immunoblot of mTORC1 pathway markers in BT-474c cells; assay type: cell-based, human; conditions: 5 days 1 μM MK-2206, then 3 μM 14h 1 h
Method: (§2) SGK3 (upper panel) and S6K1 (middle panel) were immunoprecipitated and subjected to in vitro kinase assay by measuring phosphorylation of the Crosstide substrate peptide in the presence of 0.1 mM [γ‐^32P]ATP in a 30 min 30°C reaction. Kinase reactions are presented as means ± SD for triplicate reaction. Immunoprecipitates (IP) were also analysed by immunoblot with the indicated antibodies. The cell lysates were subjected to immunoblot analysis using the indicated antibodies (bottom panel). Source data are available online for this figure.
HEK293 cells were purchased from the American Tissue Culture Collection (ATCC). Cells were cultured in RPMI or DMEM media supplemented with 10% (v/v) foetal bovine serum, 2 mM L‐glutamine, 100 U/ml penicillin and 0.1 mg/ml streptomycin. Inhibitor treatments were carried out as described in figure legends. During 5 days inhibitor treatments, the media was changed after 72‐h intervals. The cells were lysed in buffer containing 50 mM Tris–HCl (pH 7.5), 150 mM NaCl, 1 mM EDTA, 1 mM EGTA, 1 mM sodium orthovanadate, 10 mM sodium glycerophosphate, 10 mM sodium pyrophosphate, 0.27 M sucrose, 0.1% (v/v) 2‐mercaptoethanol, 1 mM benzamidine and 0.1 mM PMSF. Lysates were clarified by centrifugation at 16,000 g for 10 min at 4°C. Protein concentration was calculated using Bradford assay (Thermo Scientific). […]

[1] = test system: NDRG1 phosphorylation in ZR-75-1 cells; assay: Immunoblot of NDRG1 (Thr346) phosphorylation in breast cancer cells; assay type: cell-based, human; conditions: 1 μM, 1 h; ZR-75-1, CAMA-1 (and T47D for PI3K inhibitors)
Method: Cell lysates were subjected to immunoblot analysis with the indicated antibodies. • ZR‐75‐1 cells cultured in serum in the absence of Akt inhibitor were treated for 1 h with the indicated concentrations of VPS34‐IN1. […] One hour prior to lysis, the cells were incubated in the presence or absence of 1 μM VPS34‐IN1. SGK3 was immunoprecipitated from lysates and subjected to in vitro kinase assay by measuring phosphorylation of the Crosstide substrate peptide in the presence of 0.1 mM [γ‐^32P]ATP in a 30 min 30°C reaction (upper panel). Kinase reactions are presented as means ± SD for triplicate reaction. Immunoprecipitates (IP) and lysates were analysed by immunoblot with the indicated antibodies. […] SGK3 was immunoprecipitated from the lysates and subjected to in vitro kinase assay as in (C). Kinase reactions are presented as means ± SD for triplicate reaction. Immunoprecipitates (IP) and lysates (lower panel) were also subjected to immunoblot analysis with the indicated antibodies. • ZR‐75‐1 cells were cultured in the absence or presence of 1 μM MK‐2206 for 5 days. Cells were then treated in the absence or presence of 0.1 μM AZD8055 or 0.1 μM rapamycin for 1 h. SGK3 was immunoprecipitated and subjected to in vitro kinase assay as in (C). Kinase reactions are presented as means ± SD for triplicate reaction. The immunoprecipitates (IP) and lysates were analysed with the indicated antibodies.
One hour prior to lysis, the cells were incubated in the presence of absence of 0.3 μM SAR405. SGK3 was immunoprecipitated from lysates and subjected to in vitro kinase assay by measuring phosphorylation of the Crosstide substrate peptide in the presence of 0.1 mM [γ‐^32P]ATP in a 30 min 30°C reaction (upper panel). Kinase reactions are presented as means ± SD for triplicate reaction. Immunoprecipitates (IP) and lysates were also analysed by immunoblot with the indicated antibodies.
as §1
HEK293 cells were purchased from the American Tissue Culture Collection (ATCC). Cells were cultured in RPMI or DMEM media supplemented with 10% (v/v) foetal bovine serum, 2 mM L‐glutamine, 100 U/ml penicillin and 0.1 mg/ml streptomycin. Inhibitor treatments were carried out as described in figure legends. During 5 days inhibitor treatments, the media was changed after 72‐h intervals. The cells were lysed in buffer containing 50 mM Tris–HCl (pH 7.5), 150 mM NaCl, 1 mM EDTA, 1 mM EGTA, 1 mM sodium orthovanadate, 10 mM sodium glycerophosphate, 10 mM sodium pyrophosphate, 0.27 M sucrose, 0.1% (v/v) 2‐mercaptoethanol, 1 mM benzamidine and 0.1 mM PMSF. Lysates were clarified by centrifugation at 16,000 g for 10 min at 4°C. Protein concentration was calculated using Bradford assay (Thermo Scientific). Immunoblotting and immunoprecipitation were performed using standard procedures. The signal was developed using ECL Western Blotting Detection Kit (Amersham) on Amersham Hyperfilm ECL film (Amersham).

S6K1 = assay: Immunoprecipitated S6K1 kinase activity (Crosstide) from treated ZR-75-1 cells; assay type: cell-based, human; conditions: 1 μM MK-2206, 1 h
Method: as §2, with “were also analysed by” for “were subjected to”, “immunoblot” for “immunoblot analysis”, “antibodies (lower” for “antibodies (bottom”, “panel).” for “panel). Source data are available online for this figure.”
Briefly, SGK3, Akt and S6K1 were immunoprecipitated from 1 mg ZR‐75‐1 cell lysate. Immunoprecipitates were washed in sequence with lysis buffer containing high salt concentration (500 mM NaCl), lysis buffer and Buffer A (50 mM Tris pH 7.5, 0.1 mM EGTA). Kinase activity was assessed by measuring [γ‐^32P]ATP incorporation into Crosstide substrate peptide [[…]]. The reactions were carried in 40 μl total volume containing 0.1 mM [γ‐^32P]ATP (400–1,000 cpm/pmol), 10 mM magnesium acetate and 30 μM Crosstide peptide. Reactions were terminated by adding 10 μl 0.1 M EDTA and spotting 40 μl of the resulting reaction mix on P81 paper, which were immediately immersed into 50 mM orthophosphoric acid. Papers were washed at least five times in 50 mM orthophosphoric acid, rinsed in acetone and air‐dried. Radioactivity was quantified by Cerenkov counting. […]

Compound | IC50 (SGK3) [nM] | phosphorylation of TSC2, S6K1 and S6 protein (BT-474c cells) | phosphorylation of PRAS40 (Thr246) and NDRG1 (Thr346) [1] | reduction of S6K1 activity (S6K1)
Nc1n[nH]c2nc(-c3ccc(NS(=O)(=O)c4cc(Cl)ccc4Cl)cc3)cnc12 [14h] | 4 | suppression of phosphorylation of TSC2, S6K1 and its downstream target S6 protein | – | –
NC1(c2ccc(-c3nc4ccn5c(=O)[nH]nc5c4cc3-c3ccccc3)cc2)CCC1 [MK-2206] | – | – | inhibited | ~ 10 fold

From paper PMC5007552, “The hVps34‐SGK3 pathway alleviates sustained PI3K/Akt inhibition by stimulating mTORC1 and tumour growth” (The EMBO Journal, 2016)
